How the values were obtained:
Type in all cases: in vivo, human
[1] = Part I single-ascending-dose plasma pharmacokinetics (HPLC-MS/MS, noncompartmental)
Description: (§1) Pyragrel administration regimens are as follows: In the single-escalating-dose study (Part I), a total of 52 subjects are enrolled to receive one of three treatments (pyragrel, ozagrel, or placebo, diluted in 500 Ml normal saline) as a 3-h i.v. infusion. Six dose levels of pyragrel (30, 60,120, 180, 240, 300 mg) were intravenously infused to healthy subjects. Of the 12 subjects each at the first three dose groups (30, 60, and 120 mg), 8 received pyragrel, 2 received ozagrel (80 mg), and 2 received placebo. Eight subjects were assigned as 4/2/2 for pyragrel, ozagrel, and placebo at the 180 mg level. Only four subjects were enrolled at the 240- and 300-mg group each; all received pyragrel. […] In the saline-volume-changed study (Part II), the safety and pharmacokinetics of pyragrel were assessed by decreasing the volume of dilution saline. Four subjects received a single 3 h infusion of pyragrel 240 mg diluted in 250 ml saline instead of the 500 ml used in Part I. Blood samples were collected at multiple time points before and after the initiation of the infusion in Part I and Part II; 15 blood samples were predetermined as follows: before drug administration (time 0), 0.5, 1, 2, 3 (4 samples collected during infusion), 3.25, 3.5, 4, 5, 7, 9, 11, 15, 24, and 48 h (10 samples collected post infusion) after the initiation of the infusion. In the multiple-dose study (Part III), 12 subjects received a single 3 h infusion of 180 mg pyragrel (diluted in 250 ml saline) on Day 1 and Day 6 and twice 3 h infusion of 180 mg pyragrel from Day 2 to 5; 14 blood samples were collected on Day 1 and Day 6 before drug administration (0 h), 0.5, 1, 2, 3, 3.25, 3.5, 4, 5, 7, 9, 11, 15, 24 h after the initiation of the infusion; moreover, 5 ml cubital vein blood was collected each time right before pyragrel infusion on Day 2 to Day 5. In the 3×3 crossover study (Part IV), 12 subjects were randomized to receive each of the three dosing groups (60, 120, or 240 mg) of pyragrel (diluted with 250 ml saline, 3 h infusion) per period, with a 7-day washout period between doses. Sixteen blood samples were collected as follows: before drug administration (0 h), 0.17, 0.35, 0.5, 1, 2, 3, 3.25, 3.5, 4, 5, 7, 9, 11, 15, and 24 h after the initiation of the infusion at each period. In the prolonged infusion study (Part V), four subjects received continuous 24 h infusion of pyragrel 360 mg (diluted in 600 ml saline); 19 blood samples were collected as follows: before drug administration (0 h), 0.25, 0.5, 1, 2, 4, 8, 12, 16, 20 (nine samples collected during administration), 24.25, 24.5, 25, 26, 28, 30, 32, 36, and 48 h after the initiation of the infusion (details shown in Figure 1 ). In all five cohorts, 5 ml of cubital vein blood was collected with a sodium heparin anticoagulant tube and centrifuged at 3000 r·min^-1. Each plasma sample was divided into two aliquots and stored at −20°C until further bioanalysis. […] Briefly, 10 µl of the extract drug from […] was injected onto a Zorbax EcLipse XDB C18 column (2.1 mm × 150 mm, 5 μm) (Agilent, USA) using isocratic elution with a mobile phase composed of methanol, water, and formic acid (65:35:0.1, v/v/v). Determination of the analytes was achieved by tandem-mass spectrometry with positive electrospray ionization.
(§2) Pharmacokinetic parameters were calculated using the noncompartmental model (NCA module), WinNonlin 6.1 (Pharsight Corporation, Mountain View, CA, USA). Statistical analysis was performed with SPSS 18. The actual dosing and sampling times were utilized in the analysis. Pharmacokinetic parameters were summarized by dose regimens using descriptive statistics, including n, mean, and the coefficient of variation (CV). For Tmax, only n, min, median, and max were reported.

[2] = Part III multiple-dose study, plasma pharmacokinetics
Description: as §1, §2

[3] = Part IV urinary excretion of pyragrel and four metabolites; details: for Total cumulative urine excreted amounts over 24 h: 12 subjects; for Accumulative urinary excretion rate: over 24 h; for Cumulative urinary drug recovery (normalized to pyragrel) within 24 h: n=12, Mean ± SD
Description: Urine samples were collected after the initiation of pyragrel infusion as follows in Part IV: 0–3 (3 h infusion period), 3–7, 7–11, 11–15, and 15–24 h after pyragrel administration during each period. […] Production of 11-dehydro-thrombxane B2 (11-D-HTXB2) in urine sample was detected by ELISA method.

[4] = Part I, single 3-h i.v. infusion of pyragrel 30 mg, plasma, n=8, mean ± SD
[5] = Part I, single 3-h i.v. infusion of pyragrel 60 mg, plasma, n=8, mean ± SD
[6] = Part I, single 3-h i.v. infusion of pyragrel 120 mg, plasma, n=8, mean ± SD
[7] = Part I, single 3-h i.v. infusion of pyragrel 180 mg, plasma, n=4, mean ± SD
[8] = Part I, single 3-h i.v. infusion of pyragrel 240 mg, plasma, n=4, mean ± SD
[9] = Part I, single 3-h i.v. infusion of pyragrel 300 mg, plasma, n=4, mean ± SD
[10] = Part III, multiple dose, 3-h infusions of pyragrel 180 mg for 6 days, plasma, n=12
[11] = Part III, single dose, 3-h infusion of pyragrel 180 mg, plasma, n=12
[12] = single 3 h infusion of pyragrel 60 mg
[13] = single 3 h infusion of pyragrel 240 mg

Compound: COc1cc(C=CC(=O)[O-])ccc1OCc1nc(C)c(C)nc1C.[Na+] [Pyragrel, sodium pyragrel]
- Pharmacokinetic process over the dose range ([1]; 30–300 mg dose range): linear
- Tmax ([1]; Part I, across all six dose groups (30-300 mg), 3 h infusion): about 3 h
- Plasma concentration remaining, fraction of Cmax ([1]; Part I, at 4 h after initiation of the 3 h infusion): 1/20
- AUCINF [1, 4]: 1,051.0 ± 185.8 h*µg·L^-1
- AUClast [1, 4]: 1,047.5 ± 182.7 h*µg·L^-1
- Cl [1, 4]: 29.26 ± 4.69 L/h
- Tmax [1, 4]: 2.75 ± 0.46 h
- Vz [1, 4]: 96.16 ± 31.87 L
- t1/2 [1, 4]: 2.39 ± 1.03 h
- AUCINF [1, 5]: 2,009.4 ± 235.97 h*µg·L^-1
- AUClast [1, 5]: 2,003.7 ± 235.9 h*µg·L^-1
- Cl [1, 5]: 30.23 ± 3.58 L/h
- Cmax [1, 5]: 711.8 ± 100.2 µg/L
- Tmax [1, 5]: 2.88 ± 0.35 h
- Vz [1, 5]: 203.0 ± 81.47 L
- t1/2 [1, 5]: 4.62 ± 1.69 h
- AUCINF [1, 6]: 4,300.5 ± 807.5 h*µg·L^-1
- AUClast [1, 6]: 4,287.2 ± 812.7 h*µg·L^-1
- Cl [1, 6]: 28.76 ± 5.26 L/h
- Cmax [1, 6]: 1,435.6 ± 319.5 µg·L^-1
- Tmax [1, 6]: 2.88 ± 0.35 h
- Vz [1, 6]: 278.0 ± 162.5 L
- t1/2 [1, 6]: 6.64 ± 3.53 h
- AUCINF [1, 7]: 7,390.5 ± 414.7 h*µg·L^-1
- AUClast [1, 7]: 7,376.5 ± 413.0 h*µg·L^-1
- Cl [1, 7]: 24.41 ± 1.41 L/h
- Cmax [1, 7]: 2,622.5 ± 439.9 µg·L^-1
- Tmax [1, 7]: 3.00 ± 0.00 h
- Vz [1, 7]: 334.4 ± 110.8 L
- t1/2 [1, 7]: 9.64 ± 3.58 h
- AUCINF [1, 8]: 9,224.3 ± 2,716.3 h*µg·L^-1
- AUClast [1, 8]: 9,194.7 ± 2,703.5 h*µg·L^-1
- Cl [1, 8]: 27.50 ± 6.80 L/h
- Cmax [1, 8]: 3,144.2 ± 931.2 µg·L^-1
- Tmax [1, 8]: 2.75 ± 0.50 h
- Vz [1, 8]: 573.6 ± 180.3 L
- t1/2 [1, 8]: 14.24 ± 1.66 h
- AUCINF [1, 9]: 9,315.3 ± 1,219.1 h*µg·L^-1
- AUClast [1, 9]: 9,301.4 ± 1,215.2 h*µg·L^-1
- Cl [1, 9]: 32.62 ± 4.29 L/h
- Cmax [1, 9]: 3,011.7 ± 303.2 µg·L^-1
- Tmax [1, 9]: 2.25 ± 0.50 h
- Vz [1, 9]: 454.6 ± 191.4 L
- t1/2 [1, 9]: 9.88 ± 4.26 h
- AUCINF [2, 10]: 6,939.5 ± 2,072.8 h*µg·L^-1
- AUCTAU [2, 10]: 6,854.5 ± 2,062.7 h*µg·L^-1
- AUClast [2, 10]: 6,909.9 ± 2066.8 h*µg·L^-1
- Cl [2, 10]: 28.49 ± 8.49 L/h
- Cmax [2, 10]: 2,447.8 ± 825.3 µg·L^-1
- Tmax [2, 10]: 2.42 ± 0.67 h
- t1/2 [2, 10]: 6.51 ± 2.73 h
- Cmin ([2]; Part III, pyragrel 180 mg, printed in column Single dose, footnote a: steady-state trough concentration, n=12): 4.22 ± 2.26^a µg·L^-1
- Cavg ([2]; Part III, pyragrel 180 mg, printed in column Single dose, footnote b: steady-state peak concentration, n=12): 571.2 ± 171.9^b µg·L^-1
- AUCINF [2, 11]: 6,680.3 ± 1,668.0 h*µg·L^-1
- AUClast [2, 11]: 6,663.3 ± 1665.7 h*µg·L^-1
- Cl [2, 11]: 28.85 ± 8.75 L/h
- Tmax [2, 11]: 2.83 ± 0.39 h
- Vz [2, 11]: 226.0 ± 141.7 L
- t1/2 [2, 11]: 5.12 ± 1.91 h
- Cmax ([2]; Part III, single dose, 3-h infusion of pyragrel 180 mg, plasma, n=12, footnote c: steady-state average concentration): 2,311.9 ± 514.4^c µg·L^-1
- Accumulation on repeated dose, in words ([2]; repeated dose of pyragrel 180 mg for 6 days (once- or twice-daily dosing)): no accumulation
- Urinary excretion, share of the total drug amount ([3]; Part IV, three dose groups, pyragrel plus metabolites): more than 70%
- Total cumulative urine excreted amounts over 24 h [3, 12]: 44.80 mg
- Accumulative urinary excretion rate [3, 12]: 74.67%
- Total cumulative urine excreted amounts over 24 h ([3]; single 3 h infusion of pyragrel 120 mg): 85.07 mg
- Total cumulative urine excreted amounts over 24 h [3, 13]: 175.83 mg
- Accumulative urinary excretion rate [3, 13]: 73.26%
- Cumulative urinary drug recovery (normalized to pyragrel) within 24 h ([3]; single dose of pyragrel 60 mg): 0.94 ± 0.30%
- Cumulative urinary drug recovery (normalized to pyragrel) within 24 h ([3]; single dose of pyragrel 120 mg): 0.67 ± 0.14%
- Cumulative urinary drug recovery (normalized to pyragrel) within 24 h ([3]; single dose of pyragrel 240 mg): 0.79 ± 0.28%

Source: article PMC6821791, “Phase I Trial of Pyragrel, a Novel Thromboxane Synthetase Inhibitor, to Evaluate the Safety, Tolerability, and Pharmacokinetics in Healthy Volunteers” (Frontiers in Pharmacology, 2019)
